Test results published in patent US9249132B2, “Substituted bicyclic aromatic compounds as S-nitrosoglutathione reductase inhibitors” (Nivalis Therapeutics, Inc., priority 2010, dated 2016).

Tests used:
[1] = target: T1, GSNOR (Homo sapiens, UniProt P11766); assay: GSNOR assay (inhibition of GSNOR activity, change in 340 nm absorbance); assay type: biochemical; conditions: 100 mM NaPO4 pH 7.4, 0.240 mM GSNO, 0.300 mM NADH, 0.5 μg/mL GSNO Reductase, 1% DMSO, 25° C.
T1 construct: made in house; host or cells: E. coli
T1 sequence (P11766 whole entry): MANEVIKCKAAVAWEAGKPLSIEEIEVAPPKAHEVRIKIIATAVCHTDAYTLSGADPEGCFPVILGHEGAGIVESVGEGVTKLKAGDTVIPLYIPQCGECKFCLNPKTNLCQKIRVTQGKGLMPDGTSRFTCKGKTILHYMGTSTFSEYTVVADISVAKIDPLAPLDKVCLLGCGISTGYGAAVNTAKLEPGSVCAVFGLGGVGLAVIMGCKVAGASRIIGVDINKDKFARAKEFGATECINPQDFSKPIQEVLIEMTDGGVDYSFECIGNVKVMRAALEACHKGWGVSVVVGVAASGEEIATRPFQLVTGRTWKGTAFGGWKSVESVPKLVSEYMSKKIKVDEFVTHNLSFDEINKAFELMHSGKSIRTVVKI
Experimental: Various compounds were tested in vitro for their ability to inhibit GSNOR activity.
GSNOR expression and purification is described in Biochemistry 2000, 39, 10720-10729.
GSNOR Fermentation: Pre-cultures were grown from stabs of a GSNOR glycerol stock in 2XYT media containing 100 ug/ml ampicillin after an overnight incubation at 37° C. Cells were then added to fresh 2XYT (4 L) containing ampicillin and grown to an OD (A600) of 0.6-0.9 at 37° C. before induction. GSNOR expression was induced with 0.1% arabinose in an overnight incubation at 20° C.
GSNOR Purification: E. coli cell paste was lysed by nitrogen cavitation and the clarified lysate purified by Ni affinity chromatography on an AKTA FPLC (Amersham Pharmacia). The column was eluted in 20 mM Tris pH 8.0/250 mM NaCl with a 0-500 mM imidazole gradient. Eluted GSNOR fractions containing the Smt-GSNOR fusion were digested overnight with Ulp-1 at 4° C. to remove the affinity tag then re-run on the Ni column under the same conditions. GSNOR was recovered in the flowthrough fraction and for crystallography is further purified by Q-Sepharose and Heparin flowthrough chromatography in 20 mM Tris pH 8.0, 1 mM DTT, 10 uM ZnSO4.
GSNOR Assay: GSNO and enzyme/NADH Solutions are made up fresh each day. The solutions are filtered and allowed to warm to room temperature. GSNO solution: 100 mM NaPO4 (pH 7.4), 0.480 mM GSNO. 396 μL of GSNO Solution is added to a cuvette followed by 8 μL of test compound in DMSO (or DMSO only for full reaction control) and mixed with the pipette tip. Compounds to be tested are made up at a stock concentration of 10 mM in 100% DMSO. 2 fold serial dilutions are done in 100% DMSO. 8 μL of each dilution are added to an assay so that the final concentration of DMSO in the assay is 1%. The concentrations of compounds tested range from 100 to 0.003 μM. Enzyme/NADH solution: 100 mM NaPO4 (pH 7.4), 0.600 mM NADH, 1.0 μg/mL GSNO Reductase. 396 μL of the Enzyme/NADH solution is added to the cuvette to start the reaction. The cuvette is placed in the Cary 3E UV/Visible Spectrophotometer and the change in 340 nm absorbance/min at 25° C. is recorded for 3 minutes. The assays are done in triplicate for each compound concentration. IC50's for each compound are calculated using the standard curve analysis in the Enzyme Kinetics Module of SigmaPlot.
Final assay conditions: 100 mM NaPO4, pH 7.4, 0.240 mM GSNO, 0.300 mM NADH, 0.5 μg/mL GSNO Reductase, and 1% DMSO. Final volume: 800 μL/cuvette.

[2] = tested on: dextran sodium sulfate (DSS)-induced IBD; assay: Chronic treatment model of DSS-induced IBD; assay type: in vivo, mouse
From the text: Acute and chronic models of dextran sodium sulfate (DSS)-induced IBD in mice were used to explore efficacy of GSNORi against this disease. Acute and chronic DSS-induced IBD are widely used and well characterized models that induce pathological changes in the colon similar to those observed in the human disease. In these models and in human disease, epithelial cells within the crypts of the colon are disrupted, leading to dysfunction of the epithelial barrier and the ensuing tissue inflammation, edema, and ulceration. GSNORi therapy may benefit IBD by restoring s-nitrosoglutathione (GSNO) levels, and thus prevent or reverse the epithelial barrier dysfunction.
Experimental IBD was induced by administration of DSS in the drinking water of male C57B1/6 mice (N=10 to 12 mice per group) for 6 consecutive days. GSNORi was dosed orally at doses of 10 mg/kg/day for 14 days starting one day after cessation of DSS exposure. Efficacy of GSNORi was assessed in a blinded fashion via endoscopy after 7 days and 14 days of GSNORi dosing and via histopathology after 14 days of GSNORi dosing using a five point scale ranging from a score=0 (normal tissue) through a score=4 (ulcerative tissue damage and marked pathological changes). Levels of circulating cytokines involved in inflammatory pathways were also assessed. The effect of GSNORi was compared to vehicle treated controls. The corticosteroid, prednisolone, was used as the positive control in this study and was administered daily at 3 mg/kg/day via oral dosing. Naïve mice (N=5) were also assessed as a normal tissue control.

[3] = tested on: cigarette smoke-induced COPD; assay: Subchronic (11 day) cigarette smoke exposure COPD model; assay type: in vivo, mouse; conditions: oral 10 mg/kg/day for 11 days
Experimental: Infiltration of inflammatory cells into the bronchoalveolar lavage fluid (BALF) and BALF levels of chemokines involved in inflammation and tissue turnover/repair were measured to assess the influences of GSNOR inhibitors on some of the early events associated with the initiation and progression of COPD. […] In animal models, changes in lung pathology are only evident after extended (several months) duration of exposure to cigarette smoke, thus making chronic models prohibitive as effective screening tools. […] The key roles of inflammation in the initiation and progression of COPD, make these short duration models relevant for initial tests of efficacy of novel therapeutics. Subchronic (11 Day) Smoke Exposure Model: Female C57B1/6 mice (N=10 per group) were exposed to cigarette smoke generated from Marlboro 100 cigarettes without filters. Exposure times were 25 min. on study day 1, 35 min. on study day 2, and 45 min. on study days 3 to 11. GSNOR inhibitors were administered one hour prior to smoke exposure on each day. GSNOR inhibitors were dosed orally at 1 to 10 mg/kg/day for 11 days. The effects of GSNOR inhibitors were assessed by quantitating the number of total cells, and leukocytes differentials in the BALF via light microscopy at 24 h after the last exposure. The effect of GSNOR inhibitors were compared to vehicle treated controls and expressed as percent inhibition of the cigarette smoke induced increases in BALF cell numbers. Roflumilast was used as the positive control for the study and was dosed at 5 mg/kg/day. A group of naïve mice (N=10) was exposed to air and dosed with vehicle as a negative control for the study.

[4] = chronic model, oral 10 mg/kg/day for up to 14 consecutive days, treatment dosing regimen

**Q.** O=C(O)c1ccc(-c2ccc3cc(O)ccc3c2)c(Cl)c1 [Example 1, 3-chloro-4-(6-hydroxynaphthalen-2-yl)benzoic acid] was tested. Which IC50 [1] did it give?
**A.** < 50 nM

**Q.** And the “colon injury (in words)” value ([2]; chronic DSS-induced IBD)?
**A.** attenuated colon injury

**Q.** What about the “decrease of percent of mice presenting with severe colon injury scores via endoscopy, of vehicle control” value [2, 4] of the same compound?
**A.** 50%

**Q.** What about the “decrease of percent of mice presenting with severe colon injury scores via histopathology, of vehicle control” value [2, 4] of the same compound?
**A.** 17%

**Q.** What about the “inhibition of smoke-induced increase in lymphocytes in BAL” value [3] of the same compound?
**A.** 41%

**Q.** What about the “inhibition of smoke-induced increase in macrophages in BAL” value ([3]; p<0.05) of the same compound?
**A.** 40%

**Q.** And the “inhibition of smoke-induced increase in neutrophils in BAL” value ([3]; p<0.05)?
**A.** 49%

**Q.** What about the “inhibition of smoke-induced increase in total cells in BAL” value ([3]; p<0.05) of the same compound?
**A.** 40%
